Assay results taken from article PMC10836395, “Investigation of how gate residues in the main channel affect the catalytic activity of Scytalidium thermophilum catalase” (Acta Crystallographica. Section D, Structural Biology, 2024).
Marks after values point to notes of the source that are not given here.

Biological target: CATPO T188A variant (Scytalidium thermophilum (Humicola insolens), UniProt M4GGR5, T207A)
Format: biochemical

CATPO T188A variant, sequence (M4GGR5 entry or part of it T207A): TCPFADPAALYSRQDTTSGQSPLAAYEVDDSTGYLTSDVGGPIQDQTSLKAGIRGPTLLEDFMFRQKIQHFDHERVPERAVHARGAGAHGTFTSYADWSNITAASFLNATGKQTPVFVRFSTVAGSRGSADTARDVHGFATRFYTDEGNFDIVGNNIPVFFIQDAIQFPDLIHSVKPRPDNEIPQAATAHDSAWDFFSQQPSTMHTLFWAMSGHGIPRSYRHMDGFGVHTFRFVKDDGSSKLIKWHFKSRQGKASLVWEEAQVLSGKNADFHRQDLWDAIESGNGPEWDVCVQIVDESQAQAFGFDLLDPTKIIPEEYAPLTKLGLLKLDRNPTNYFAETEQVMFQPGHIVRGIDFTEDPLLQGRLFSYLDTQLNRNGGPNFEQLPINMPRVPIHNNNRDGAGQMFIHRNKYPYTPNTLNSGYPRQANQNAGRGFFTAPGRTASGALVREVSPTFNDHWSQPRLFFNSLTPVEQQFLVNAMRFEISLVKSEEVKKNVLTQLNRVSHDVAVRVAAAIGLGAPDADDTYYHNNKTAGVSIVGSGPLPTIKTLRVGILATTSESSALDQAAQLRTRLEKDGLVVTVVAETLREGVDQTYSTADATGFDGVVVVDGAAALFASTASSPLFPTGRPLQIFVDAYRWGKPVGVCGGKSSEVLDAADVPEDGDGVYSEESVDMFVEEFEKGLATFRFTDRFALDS

Q: Oc1cccc(O)c1O [Pyrogallol, pyrogallol] was tested. Which V max did it give?
A: 16200 ± 410 mM/min

Q: What about the “k cat/K m” value of the same molecule?
A: 660 ± 88 s^−1 M^−1 (×10^2)

Q: What about the K m (pH 7.0 (ABTS pH 5.0), 60°C) of the same molecule?
A: 40 ± 1.0 mM
